Experimental data reported in ChEMBL document CHEMBL1155620, “Two new biologically active triterpene saponins from Acanthophyllum squarrosum” (J Nat Prod, 2000).
Calls of active or inactive are those of the source. No cut-off for these calls is given here.

Tests used:
[1] = Cytotoxicity against mouse lymphocytes at 100 ug/mL by MTS assay
Mus musculus [2] = species on record: Mus musculus; assay: Increase in LPS-induced proliferation in mouse B-lymphocytes at 1 ug/mL by MTS assay; assay type: functional, cell-based
Mus musculus [3] = species on record: Mus musculus; assay: Increase in concanavalin A-induced proliferation in mouse T-lymphocytes at 1 ug/mL by MTS assay; assay type: functional, cell-based
Mus musculus [4] = species on record: Mus musculus; assay: Immunostimulant activity in mouse lymphocytes at 100 pg/ml to 1 ug/mL by MTS assay; assay type: functional, cell-based
[5] = Cytotoxicity against mouse lymphocytes at 10 ug/mL by MTS assay
[6] = Suppression of concanavalin A-induced proliferation in mouse T-lymphocytes at 1 ug/mL by MTS assay; assay type: functional

| Structure (SMILES) | Activity [1] | Activity (Mus musculus [2]) | Activity (Mus musculus [3]) | Activity (Mus musculus [4]) | Activity [5] | Activity [6] [%] |
| --- | --- | --- | --- | --- | --- | --- |
| C[C@@H]1O[C@@H](O[C@H]2[C@H](O[C@H]3[C@H](OC(=O)[C@]45CCC(C)(C)C[C@H]4C4=CC[C@@H]6[C@@]7(C)CC[C@H](O[C@@H]8O[C@H](CO)[C@@H](O)[C@H](O)[C@H]8O)[C@@](C)(C=O)[C@@H]7CC[C@@]6(C)[C@]4(C)CC5)O[C@H](CO[C@@H]4O[C@H](CO)[C@@H](O)[C@H](O)[C@H]4O)[C@@H](O)[C@@H]3O)OC[C@H](O)[C@@H]2O)[C@H](O)[C@H](O)[C@H]1O | Non-toxic | Active | Active |  |  |  |
| C[C@@H]1O[C@@H](O[C@@H]2[C@@H](O)[C@H](OC(=O)[C@]34CCC(C)(C)C[C@H]3C3=CC[C@@H]5[C@@]6(C)CC[C@H](O[C@@H]7O[C@H](C(=O)O)[C@@H](O)[C@H](O[C@@H]8OC[C@@H](O)[C@H](O)[C@H]8O)[C@H]7O[C@@H]7O[C@H](CO)[C@H](O)[C@H](O)[C@H]7O)[C@@](C)(C=O)[C@@H]6CC[C@@]5(C)[C@]3(C)CC4)O[C@H](C)[C@@H]2O[C@@H]2O[C@@H](C)[C@H](O[C@@H]3OC[C@@H](O)[C@H](O[C@@H]4OC[C@@H](O)[C@H](O)[C@H]4O)[C@H]3O)[C@@H](O)[C@H]2O)[C@H](O)[C@H](O)[C@H]1O | 58% | Active |  | Active | Non-toxic | 40 |
